Measured values reported in patent publication US9109041B2, “Analog compounds of analgesic peptides derived from the venom of crotalus durissus terrificus snakes, their uses, compositions, methods of preparation and purification” (priority 2004, dated 2015).

System: prostaglandin E2-induced hyperalgesia
Assay: rat paw pressure test, prostaglandin E2-induced hyperalgesia

Substance: Xaa-Phe-Ser-Pro-Glu-Asn-Cys-Gln-Gly-Glu-Ser-Gln-Pro-Cys [SEQ ID NO: 2]
- pain threshold, FM (g) ± S.E.M (0.00000256 μg/paw i.pl., 3 h after PGE2 100 ng/paw i.pl.): 57 ± 5.34 g
- pain threshold, IM (g) ± S.E.M. (0.00000256 μg/paw i.pl., before PGE2): 72 ± 1.12 g
- pain threshold, FM (g) ± S.E.M (0.0000128 μg/kg i.v., 3 h after PGE2 100 ng/paw i.pl.): 54 ± 3.04 g
- pain threshold, IM (g) ± S.E.M. (0.0000128 μg/kg i.v., before PGE2): 70 ± 2.05 g
- pain threshold, FM (g) ± S.E.M (0.0000128 μg/paw i.pl., 3 h after PGE2 100 ng/paw i.pl.): 62 ± 3.22 g
- pain threshold, IM (g) ± S.E.M. (0.0000128 μg/paw i.pl., before PGE2): 71 ± 2.39 g
- pain threshold, FM (g) ± S.E.M (0.000064 μg/kg i.v., 3 h after PGE2 100 ng/paw i.pl.): 54 ± 2.39 g
- pain threshold, IM (g) ± S.E.M. (0.000064 μg/kg i.v., before PGE2): 68 ± 1.44 g
- pain threshold, FM (g) ± S.E.M (0.00032 μg/kg i.v., 3 h after PGE2 100 ng/paw i.pl.): 63 ± 5.16 g
- pain threshold, IM (g) ± S.E.M. (0.00032 μg/kg i.v., before PGE2): 72 ± 1.84 g
- pain threshold, FM (g) ± S.E.M (0.00032 μg/paw i.pl., 3 h after PGE2 100 ng/paw i.pl.): 60 ± 3.25 g
- pain threshold, IM (g) ± S.E.M. (0.00032 μg/paw i.pl., before PGE2): 67 ± 2.35 g
- pain threshold, FM (g) ± S.E.M (0.0016 μg/kg i.v., 3 h after PGE2 100 ng/paw i.pl.): 67 ± 2.35 g
- pain threshold, IM (g) ± S.E.M. (0.0016 μg/kg i.v., before PGE2): 74 ± 0.92 g
- pain threshold, FM (g) ± S.E.M (0.0016 μg/kg p.o., 3 h after PGE2 100 ng/paw i.pl.): 64 ± 1.00 g
- pain threshold, IM (g) ± S.E.M. (0.0016 μg/kg p.o., before PGE2): 78 ± 1.22 g
- pain threshold, FM (g) ± S.E.M (0.0016 μg/paw i.pl., 3 h after PGE2 100 ng/paw i.pl.): 67 ± 1.12 g
- pain threshold, IM (g) ± S.E.M. (0.0016 μg/paw i.pl., before PGE2): 72 ± 1.84 g
- pain threshold, FM (g) ± S.E.M (0.008 μg/kg i.v., 3 h after PGE2 100 ng/paw i.pl.): 73 ± 4.74 g
- pain threshold, IM (g) ± S.E.M. (0.008 μg/kg i.v., before PGE2): 69 ± 2.26 g
- pain threshold, FM (g) ± S.E.M (0.008 μg/kg p.o., 3 h after PGE2 100 ng/paw i.pl.): 71 ± 2.39 g
- pain threshold, IM (g) ± S.E.M. (0.008 μg/kg p.o., before PGE2): 79 ± 1.25 g
- pain threshold, FM (g) ± S.E.M (0.04 μg/kg p.o., 3 h after PGE2 100 ng/paw i.pl.): 75 ± 1.87 g
- pain threshold, IM (g) ± S.E.M. (0.04 μg/kg p.o., before PGE2): 77 ± 1.22 g
- pain threshold, FM (g) ± S.E.M (0.2 μg/kg p.o., 3 h after PGE2 100 ng/paw i.pl.): 84 ± 1.87 g
- pain threshold, IM (g) ± S.E.M. (0.2 μg/kg p.o., before PGE2): 77 ± 2.00 g
- pain threshold, FM (g) ± S.E.M (1 μg/kg p.o. + CTOP 20 μg/leg i.pl. with PGE2, 3 h after PGE2): 114 ± 1.87 g
- pain threshold, IM (g) ± S.E.M. (1 μg/kg p.o. + CTOP 20 μg/leg i.pl., before PGE2): 77 ± 1.22 g
- pain threshold, FM (g) ± S.E.M (1 μg/kg p.o. + ICI174,864 10 μg/paw i.pl. with PGE2, 3 h after PGE2): 114 ± 1.00 g
- pain threshold, IM (g) ± S.E.M. (1 μg/kg p.o. + ICI174,864 10 μg/paw i.pl., before PGE2): 78 ± 1.22 g
- pain threshold, FM (g) ± S.E.M (1 μg/kg p.o. + nor-Binalthorphimine 50 μg/leg i.pl. with PGE2, 3 h after PGE2): 56 ± 1.87 g
- pain threshold, IM (g) ± S.E.M. (1 μg/kg p.o. + nor-Binalthorphimine 50 μg/leg i.pl., before PGE2): 77 ± 1.22 g
- pain threshold, IM (g) ± S.E.M. (1 μg/kg p.o., 0 h, before administration (Table 6)): 79 ± 1.00 g
- pain threshold, FM (g) ± S.E.M (1.0 μg/kg p.o., 3 h after PGE2 100 ng/paw i.pl. (Table 2)): 108 ± 2.00 g
- pain threshold, FM (g) ± S.E.M (1 μg/kg p.o., 3 h after PGE2 100 ng/paw i.pl. (Table 7)): 111 ± 3.32 g
- pain threshold, FM (g) ± S.E.M (1 μg/kg p.o., 24 h after administration, PGE2 100 ng/paw 3 h before measurement): 126 ± 3.32 g
- pain threshold, FM (g) ± S.E.M (1 μg/kg p.o., 48 h after administration, PGE2 100 ng/paw 3 h before measurement): 121 ± 1.87 g
- pain threshold, FM (g) ± S.E.M (1 μg/kg p.o., 72 h after administration, PGE2 100 ng/paw 3 h before measurement): 111 ± 4.3 g
- pain threshold, FM (g) ± S.E.M (1 μg/kg p.o., 96 h after administration, PGE2 100 ng/paw 3 h before measurement): 117 ± 2.5 g
- pain threshold, FM (g) ± S.E.M (1 μg/kg p.o., 120 h after administration, PGE2 100 ng/paw 3 h before measurement): 130 ± 2.24 g
- pain threshold, FM (g) ± S.E.M (1 μg/kg p.o., 144 h after administration, PGE2 100 ng/paw 3 h before measurement): 59 ± 2.39 g
- pain threshold, IM (g) ± S.E.M. (1.0 μg/kg p.o., before PGE2 (Table 2)): 77 ± 2.00 g
